Data: patent US20230241071A1, “COMBINATION TREATMENT OF LIVER DISORDERS” (Terns Pharmaceuticals, Inc., priority 2021, published 2023)
“And” between values parts separate entries of the source, which are not always exact repeats. Equal entries are not always repeated. “Also recorded” adds a separate entry of the source.

Experiments:
[1] = Trough plasma compound levels in DIO-GAN mice; format: in vivo, mouse; conditions: plasma 21-24 h post final dose
Protocol: Terminal plasma samples were harvested by cardiac puncture approximately 21-24 hours after the last administration of compound(s). Terminal plasma samples were analyzed by high resolution LC-MS/MS using a Triple Quad 6500+ instrument. 20 μL of plasma sample was mixed with 200 μL of internal standard solution (100 ng/mL Labetalol+100 ng/mL Tolbutamide in acetonitrile), vortexed, and centrifuged at 4,000 rpm for 15 min at 4° C. […] The internal standard 1 (retention time: 0.87 min) and standard 2 (retention time: 0.96 min) were used for quantification of Compound 3 (retention time: 0.87 min) and Compound 2 (retention time: 0.97 min), respectively. The internal standard (retention time: 0.76 min), was used for quantification of the glucuronide metabolite of Compound 3 (retention time: 0.77 min). Calibration curves (1-3000 ng/mL) were generated in a matrix of mouse plasma (pooled vehicle control) for each analyte.

DIO-GAN NASH mouse model = assay: Biopsy-confirmed DIO-GAN NASH mice, 12 weeks mono- and combination treatment; format: in vivo
Source text: C57BL/6JRj male mice (n=138) were fed the Gubra Amylin NASH (GAN) diet (40% fat, 22% fructose, 2% cholesterol [D09100310, Research Diets]) or lean chow diet for 35 weeks before treatment start. Prior to treatment all animals underwent liver biopsy for histological confirmation (steatosis score ≥2 and fibrosis stage ≥1) and stratification using the nonalcoholic fatty liver disease (NAFLD) activity scoring (NAS) and fibrosis staging system. The diet-induced obese mice on GAN diet (DIO-GAN) were randomized to 8 treatment groups […] based on percent-area of picrosirius red (PSR) staining. DIO-GAN mice (n=16 per group) received treatment (PO, QD) for 12 weeks with vehicle (0.5% HPMC+0.2% Tween-80 in Tris buffer [50 mM, pH 8]), Compound 3 (10 mg/kg), Compound 2 (0.3 mg/kg [low], 2 mg/kg [med], or 10 mg/kg [high]), or combination treatments of Compound 3 with Compound 2 (Combo-low, Combo-med or Combo-high). Vehicle-dosed lean chow-fed controls served as healthy controls (n=10). Mice were maintained on their respective diets (GAN or lean chow) for the duration of the study. Within-subject comparisons (pre- vs. post-treatment) were performed for liver biopsy histopathological scores. Terminal quantitative endpoints included plasma/liver biochemistry, liver histomorphometry, and liver transcriptomic analysis by RNAseq.
Formalin-fixed paraffin-embedded (FFPE) liver biopsies were prepared by placing liver samples into 10% neutral buffered formalin for ˜24 hours and then transferred to 70% ethanol prior to storage at 4 C. FFPE were placed in the Histokinette to infiltrate prior to embedding in blocks. Biopsy tissues were then cut at 3 μm using a microtome and sections were mounted on slides. Liver sections were stained with Hematoxylin and Eosin (H&E) to assess steatosis, inflammation, and ballooning, and PSR to assess fibrosis. Additionally, slides were processed to detect type I collagen (Col1a1), galectin-3 (Gal-3), and smooth muscle actin (α-SMA) protein expression by immunohistochemistry (IHC). For H&E staining, slides were incubated in Mayer's Hematoxylin (Dako), washed with tap water, stained in Eosin Y solution (Sigma-Aldrich), dehydrated, and coverslipped. For PSR, slides were incubated in Weigert's iron hematoxylin (Sigma-Aldrich), washed in tap water, stained in Picro-sirius red (Sigma-Aldrich), and washed twice in acidified water. Excess water was removed by shaking the slides and the slides were then dehydrated with ethanol, cleared in xylene, and cover-slipped. The NAS and fibrosis stage were scored as described previously (Kleiner et al. 2005). NAS represents the unweighted sum of steatosis, inflammation, and ballooning scores and ranges for 0-8 (Table 26); fibrosis stage ranges from 0 (no fibrosis) to 4 (cirrhosis). For detection of Col1a1, Gal-3 and α-SMA, IHC was performed by standard procedures. Briefly, after antigen retrieval and blocking of endogenous peroxidase activity, slides were incubated with primary antibody (Col1a1: Southern Biotech, Cat. 1310-01; Gal-3: Biolegend, Cat. 125402; α-SMA: Abcam Cat. Ab124964). Primary antibody was detected using a polymeric HRP-linker antibody conjugate. Primary antibody was visualized with DAB as chromogen. Finally, sections were counterstained in hematoxylin and cover-slipped.
Terminal blood was harvested by cardiac puncture from mice anesthetized with isoflurane (2-3%), mixed with anticoagulant, and placed at 4 C prior to centrifugation at 3000×g for 10 minutes. Plasma supernatants were transferred to new tubes and immediately frozen on dry ice and stored at −80 C. Alanine transaminase (ALT), Aspartate transaminase (AST), Alkaline phosphatase (ALP), Triglycerides (TGs), Total Cholesterol (TC), High-density lipoprotein (HDL-c), and Low-density lipoprotein (LDL-c) were measured using commercial kits (Roche Diagnostics) on the Cobas c 501 autoanalyzer according to manufacturer's instructions. […]

[2] = 12 wk PO QD, vs DIO-GAN vehicle control
[3] = 12 wk PO QD, Compound 3 10 mg/kg
[4] = 12 wk PO QD, single agent 10 mg/kg

What does the source list for `Cn1cc(C(=O)O)c2ccc(N3CCC(OCc4c(-c5c(Cl)cccc5Cl)noc4C4CC4)CC3)cc21` [Compound 3]?
Mean trough analyte concentration (SD) ([1]; group Combo-high, Compound 3 10 mg/kg + Compound 2 10 mg/kg (14)): 3.3 (1.8) ng/mL; Mean trough analyte concentration (SD) ([1]; group Combo-med, Compound 3 10 mg/kg + Compound 2 2 mg/kg (16)): 5.8 (3.5) ng/mL; Mean trough analyte concentration (SD) ([1]; group Compound 3 10 mg/kg (16)): 7.4 (3.8) ng/mL; Gal-3 expression in the liver (IHC) relative to DIO-GAN vehicle control (DIO-GAN NASH mouse model; 12 wk PO QD): reduces expression of Galectin-3; also recorded: lower levels of Gal-3 expression; body weight during the study (DIO-GAN NASH mouse model; 12 wk PO QD): reduced body weight; also recorded: decreased body weight; hepatomegaly (liver weight) (DIO-GAN NASH mouse model; [2]): significantly reduced hepatomegaly; spleen weight (DIO-GAN NASH mouse model; [2]): without changes in spleen weight; total cholesterol (plasma) (DIO-GAN NASH mouse model; [2]): significantly reduced total cholesterol; Histological steatosis score: mice improving 1-pt (DIO-GAN NASH mouse model; [3]): 81.25%; Histological steatosis score: mice improving >2-pt (DIO-GAN NASH mouse model; [3]): 0%; Histological steatosis score: mice with no change (DIO-GAN NASH mouse model; [3]): 18.75%; Liver fibrosis stage: mice improving (DIO-GAN NASH mouse model; [3]): 6.25%; Liver fibrosis stage: mice with no change (DIO-GAN NASH mouse model; [3]): 56.25%; Liver fibrosis stage: mice worsening (DIO-GAN NASH mouse model; [3]): 37.5%; Lobular inflammation: mice improving (DIO-GAN NASH mouse model; [3]): 0%; Lobular inflammation: mice with no change (DIO-GAN NASH mouse model; [3]): 68.75%; Lobular inflammation: mice worsening (DIO-GAN NASH mouse model; [3]): 31.25%; plasma triglycerides (DIO-GAN NASH mouse model; 12 wk PO QD, Compound 3 10 mg/kg, Compound 2-high 10 mg/kg, combinations): significantly reduced plasma triglycerides; Histological steatosis score: mice improving, Total (at least 1-pt) (DIO-GAN NASH mouse model; 12 wk PO QD, Compound 3 10 mg/kg, 10 mg/kg): 81% and 81.25%; body weight at the end of study vs DIO-GAN vehicle control (DIO-GAN NASH mouse model; 12 wk PO QD, Compound 3 10 mg/kg, Combo = + Compound 2 0.3/2/10 mg/kg): significantly lower; α-SMA (IHC), marker of hepatic stellate cell activation (DIO-GAN NASH mouse model; 12 wk PO QD, Compound 3, Compound 2-low and -med, Combo-low): Numeric reductions; NAS: mice improving ≥2-pt (DIO-GAN NASH mouse model; [4]): 0%; NAS: mice improving, Total (≥1-pt) (DIO-GAN NASH mouse model; [4]): 56%; fat tissue mass (EchoMRI) (DIO-GAN NASH mouse model; Week 11): significantly reduced fat tissue mass; also recorded: reduced levels of fat tissue; Scd1 expression (DIO-GAN NASH mouse model; liver RNAseq): reduced; expression of Col1a1, Acta2, Lgals3, CD146 relative to DIO-GAN vehicle control (DIO-GAN NASH mouse model; liver RNAseq): significantly reduced expression
